Reference: patent US20230121313A1 (priority 2019, published 2023)

Assays:
[1] = test system: patients; test: Adverse reactions across clinical studies as described in product labeling; type: in vivo, human
Excerpt: In the product labeling, patients will be informed that dissociative/perceptual changes (including distortion of time and space and illusions), derealization and depersonalization are common psychological effects of esketamine. Patients will be further advised that • These adverse reactions were reported as transient and self-limited and occurred on the day of dosing. • Dissociation was reported as severe in intensity at the incidence of less than 4% across studies, • Dissociation symptoms typically resolved by 1.5 hours after dosing and the severity tended to reduce over time with repeated treatments. • Dissociative and perception disturbances may decrease after a few treatment sessions.
The product label will include a brief description of the adverse reactions of sedation and somnolence reported in clinical studies with esketamine: • Events of sedation and somnolence were primarily mild or moderate in severity, occurred on the day of dosing and resolved spontaneously the same day. • The sedative effects typically resolved by 1.5 hours after dosing. • Rates of somnolence were relatively stable over time during long-term treatment. • In the cases of sedation, no symptoms of respiratory distress were observed, and hemodynamic parameters (including vital signs and oxygen saturation) remained within normal ranges.

[2] = test system: subjects with MDD at imminent risk for suicide; test: SIBAT Clinical Global Judgment of Suicide Risk, Study […]2001; type: in vivo, human; settings: 84 mg
Excerpt: • a. Changes from baseline to Day 2 and Day 25 for the MADRS total score • b. Changes from baseline to Day 1 4-hours postdose, Day 2 and Day 25 for the MADRS Suicide Item • c. Changes from baseline to Day 1 4-hours postdose, Day 2, and Day 25 for the clinical global judgment of suicide risk from the Suicide Ideation and Behavior Assessment Tool (SIBAT) • d. Sustained response (Onset of Clinical Response) defined as at least 50% reduction from baseline in MADRS total score with onset on Day 1 that is maintained through the end of the double-blind phase (Day 25) • e. Changes from baseline to Day 1 4-hours postdose, Day 2, and Day 25 for the Beck Scale for Suicidal Ideation (BSS) • f. Changes from baseline to Day 1 4-hours postdose and Day 25 for the Beck Hopelessness Scale
The clinical global judgment of suicide risk (Module 8) summarizes clinician overall judgment of suicide risk as derived from information gathered from the full SIBAT tool. It operates like numerous other CGI-severity scales that have been used in other psychiatric studies. Change in the clinical global judgment of suicide risk is designed to directly identify clinical meaningful changes in suicidal ideation and to permit classification of suicide risk.
The analysis of the change in SIBAT score was based on an ANCOVA model on ranks of change in SIBAT with treatment, antidepressant therapy, and analysis center as factors, and baseline value (unranked) as a covariate. There was a significant difference (two-sided […]) between the two treatment groups when comparing the mean rank of change from baseline at Day 1: 4-hours postdose in favor of esketamine 84 mg See, Table 58. See, FIG. 39. […] This difference was not evident at the Day 25 DB endpoint. See, FIG. 40, which is based on LOCF data and analyzed using Cochran-Mantel-Haenszel test controlling for analysis center and antidepressant therapy.

[3] = test system: subjects with TRD; settings: human, in vivo, other: intranasal
Description: The Clinician Administered Dissociative States Scale (CADSS) was measured prior to the start of each dose, at 40 minutes, and 1.5 hours postdose.

[4] = Pharmacokinetics of esketamine nasal spray, data assembled from 14 Phase 1 studies (Example 10); settings: human, plasma, inhaled or intranasal
Description: The data herein was assembled from 14 Phase 1 studies; each Phase 1 study was performed similarly to the study outlined in Example 9 in which the PK of esketamine was assessed.

Q: For `CN[C@]1(c2ccccc2Cl)CCCCC1=O` [esketamine, (S)-2-(2-chlorophenyl)-2-(methylamino)cyclohexanone], which “Dissociation symptoms typically resolved by (after dosing)” value ([1]; across studies) is on record?
A: The value was no more than 1.5 h.

Q: And the “Incidence of dissociation reported as severe in intensity” value ([1]; across studies)?
A: The value was “less than 4%”.

Q: What about the “Sedative effects typically resolved by (after dosing)” value ([1]; clinical studies) of the same compound?
A: The value was no more than 1.5 h.

Q: What about the “SIBAT Clinical Global Judgment of Suicide Risk, change from baseline, median (range)” value ([2]; Day 1 (DB): 4 H, LOCF, N 33) of the same compound?
A: Its value is 0.0 (−6; 1).

Q: What about the “SIBAT Clinical Global Judgment of Suicide Risk, median (range)” value ([2]; Day 1 (DB): 4 H, LOCF, N 33) of the same compound?
A: The value was 5.0 (0; 6).

Q: What about the “SIBAT Clinical Global Judgment of Suicide Risk, change from baseline, median (range)” value ([2]; Day 2(DB) LOCF, N 35) of the same compound?
A: Its value is −1.0 (−6; 1).

Q: What about the “SIBAT Clinical Global Judgment of Suicide Risk, median (range)” value ([2]; Day 2(DB) LOCF, N 35) of the same compound?
A: Its value is 5.0 (0; 6).

Q: And the “Subjects with a SIBAT score of 5 or 6” value ([2]; […]2001, Day 1: 4-hour postdose)?
A: Its value is 63.6%.

Q: And the “CADSS dissociative and perceptual change symptoms resolved by (postdose)” value [3]?
A: Its value is no more than 1.5 h.

Q: And the AUC(0-t) ([4]; 28 mg)?
A: Its AUC(0-t) is 128 to 183 ng·h/mL.

Q: What about the Cmax ([4]; 28 mg) of the same compound?
A: Its Cmax is 49.7 to 70.5 ng/mL.

Q: What about the half-life ([4]; 28 mg, Terminal t1/2, young adult subjects, single dose nasal spray 28 mg, range across studies) of the same compound?
A: The half-life was 435 to 990 min.

Q: What about the Tmax ([4]; 28 mg, Tmax, young adult subjects, single dose nasal spray 28 mg, range of median values) of the same compound?
A: The Tmax was 19.8 to 40.2 min.

Q: And the Tmax ([4]; 28 mg, tmax typically observed after the first nasal spray, 28 mg)?
A: Its Tmax is 20 to 40 min.

Q: What about the AUC(0-t) ([4]; 56 mg) of the same compound?
A: The AUC(0-t) was 216 to 317 ng·h/mL.

Q: What about the Cmax ([4]; 56 mg) of the same compound?
A: Its Cmax is 71.8 to 117 ng/mL.

Q: What about the half-life ([4]; 56 mg, Terminal t1/2, young adult subjects, single dose nasal spray 56 mg, range across studies) of the same compound?
A: Its half-life is 408 to 590 min.

Q: What about the Tmax ([4]; 56 mg, Tmax, young adult subjects, single dose nasal spray 56 mg, range of median values) of the same compound?
A: The Tmax was 30 to 46.2 min.

Q: What about the Tmax ([4]; 56 mg, tmax typically observed after the first nasal spray, 56 mg) of the same compound?
A: Its Tmax is 30 to 45 min.

Q: And the AUC(0-t) ([4]; 84 mg)?
A: The AUC(0-t) was 310 to 489 ng·h/mL.

Q: And the Cmax ([4]; 84 mg)?
A: Its Cmax is 95 to 164 ng/mL.

Q: What about the half-life ([4]; 84 mg, Terminal t1/2, young adult subjects, single dose nasal spray 84 mg, range across studies) of the same compound?
A: Its half-life is 396 to 720 min.

Q: What about the Tmax ([4]; 84 mg, Tmax, young adult subjects, single dose nasal spray 84 mg, range of median values) of the same compound?
A: The Tmax was 31.8 to 49.8 min.

Q: What about the Tmax ([4]; 84 mg, tmax typically observed after the first nasal spray, 84 mg) of the same compound?
A: The Tmax was 30 to 50 min.

Q: And the half-life ([4]; Mean terminal t1/2, range, nasal administration)?
A: Its half-life is 420 to 720 min.

Q: And the half-life ([4]; Median terminal t1/2, nasal administration)?
A: Its half-life is 642 min.
